{"source": "patent US20230381176A1", "about": "“A PHARMACEUTICAL COMPOSITION AND USE THEREOF FOR TREATMENT OF CANCER” (Ascentage Pharma (Suzhou) Co., Ltd., priority 2020, published 2023)", "key": {"[1]": {"system": "OVCAR3 s.c. ovarian xenograft", "assay_type": "in vivo", "experimental": "(§1) A subcutaneous xenograft tumor model of human tumor immunodeficient mice was established by cell inoculation: tumor cells in logarithmic growth phase were collected, counted, resuspended in 1×PBS, and the cell suspension concentration was adjusted to 2.5-5 ×10^7/mL. The tumor cells were inoculated subcutaneously in the right side of immunodeficient mice with a 1 mL syringe ([…]), 5-10×10^6/0.2 mL/mouse. All animal experiments were strictly in accordance with the specifications for the use and management of experimental animals in GenePharma Co., Ltd. and Suzhou Ascentage Pharma Co., Ltd. The calculation of relevant parameters refers to the Chinese NMPA “Guidelines for Non-Clinical Research Techniques of Cytotoxic Anti-tumor Drugs”.\n(§2) Animal body weight and tumor size were measured twice weekly during the experiment. The state of the animal and the presence or absence of death were observed every day. The growth of tumor and the effects of treatment on normal behavior of animals were monitored routinely, specifically involving experimental animal activity, feeding and drinking, weight gain or loss, eyes, clothing hair and other abnormalities. The deaths and clinical symptoms observed during the experiment were recorded in the raw data. All operations for administration and measurement of mouse body weight and tumor volume were performed in a clean bench. According to the requirements of the experimental protocol, after the end of the last administration, plasma and tumor tissues were collected, weighed and photographed. The plasma and tumor samples were frozen at −80° C. for ready-to-use.\n(§3) Tumor volume (TV) is calculated as: TV=a×b^2/2, wherein a and b represent the length and width of the tumor to be measured, respectively.\n(§4) The relative tumor volume (RTV) is calculated as: RTV=Vt/V1, wherein V1 is the tumor volume at the start of grouping and administration, and Vt is the tumor volume measured on the t day after administration.\n(§5) Change of body weight (%)=(measured body weight−body weight at the start of grouping)/body weight at the start of grouping×100%.\n(§6) A dose of drug is considered to be severely toxic if the body weight of mouse is reduced by more than 20% or the number of drug-related deaths exceeds 20%.\n(§7) According to the description by Clarke R., Issues in experimental design and endpoint analysis in the study of experimental cytotoxic agents in vivo in breast cancer and other models [J]. Breast Cancer Research & Treatment, 1997, 46(2-3): 255-278, synergy analysis was evaluated using the following formula: synergy factor=((A/C)×(B/C))/(AB/C); A=RTV value of drug A alone group; B=RTV value of drug B alone group; C=RTV value of the solvent control group, and AB=RTV value of the A and B combination group.\n(§8) Use of mRECIST (Gao et al., 2015) measured tumor responses included stable disease (SD), partial tumor regression (PR), and complete regression (CR), determined by comparing tumor volume change at day t to its baseline: tumor volume change (%)=(Vt−V1)/V1. The BestResponse was the minimum value of tumor volume change (%) for t≥10. For each time t, the average of tumor volume changes from t=1 to t was also calculated. BestAvgResponse was defined as the minimum value of this average for t≥10. The criteria for response (mRECIST) were adapted from RECIST criteria (Gao et al., 2015; Therasse et al., 2000) and defined as follows: mCR, BestResponse<−95% and BestAvg Response<−40%; mPR, BestResponse<−50% and BestAvgResponse<−20%; mSD, BestResponse<35% and BestAvgResponse<30%; mPD, not otherwise categorized. SD, PR, and CR were considered responders and used to calculate response rate (%). […] Body weight of animals were monitored simultaneously. The change in body weight was calculated based on the animal weight of the first day of dosing (day 1). Tumor volume and changes in body weight (%) were represented as the mean±standard error of the mean (SEM)."}, "[2]": {"system": "PTK2 high ovarian PDX OV2018", "assay": "PTK2 high ovarian PDX model OV2018, Compound 5 and paclitaxel", "assay_type": "in vivo, mouse", "experimental": "as §1, §2, §3, §4, §5, §6, §7, §8"}, "[3]": {"details": "Compound 5 100 mg/kg orally once per day, paclitaxel 10 mg/kg i.v. once a week, carboplatin 30 mg/kg i.v. once a week"}, "[4]": {"details": "Compound 5 50 mg/kg orally once per day, paclitaxel 10 mg/kg i.v. once a week, 35 days"}}}
{"smiles": "Cc1cc(Nc2ncc(Cl)c(Nc3ccccc3S(=O)(=O)C(C)C)n2)c(OC(C)C)cc1C1=CCN(C2CCOCC2)CC1", "note": "[Compound 5, 5-chloro-N^2-(2-isopropoxy-5-methyl-4-(1-(tetrahydro-2H-pyran-4-yl)-1,2,3,6-tetrahydropyridin-4-yl)phenyl)-N^4-(2-(isopropylsulfonyl)phenyl)pyrimidine-2,4-diamine]", "values": [{"measurement": "RTV on Day 35 after administration (mean ± standard error)", "setting": "[1]; [3]", "value": "13.66 ± 2.88"}, {"measurement": "T/C on Day 35 after administration (%)", "setting": "[1]; [3]", "value": 85.04, "unit": "%"}, {"measurement": "mRECIST", "setting": "[1]; animals per class", "value": "5/5 PD"}, {"measurement": "antitumor activity (conclusion in words)", "setting": "[1]; mouse, in vivo", "value": "minor antitumor activity"}, {"measurement": "Overall regression rate (ORR), %", "setting": "[1]; proportion of animals with CR or PR", "value": 0, "unit": "%"}, {"measurement": "Disease control rate (DCR), %", "setting": "[1]; proportion of animals with CR, PR or SD", "value": 0, "unit": "%"}, {"measurement": "RTV on Day 35 after administration (mean ± standard error)", "setting": "[2]; [4]", "value": "3.94 ± 0.41"}, {"measurement": "T/C on Day 35 after administration (%)", "setting": "[2]; [4]", "value": 162.80, "unit": "%"}, {"measurement": "mRECIST on Day 35 after administration", "setting": "[2]; Day 35, animals per class", "value": "2/2 PD"}, {"measurement": "mRECIST", "setting": "[2]; best response, animals per class", "value": "2/2 PD"}, {"measurement": "antitumor activity (conclusion in words)", "setting": "[2]; mouse, in vivo", "value": "no antitumor activity"}]}
